# Measured values published in US4938964A, “External dermatological composition” (Showa Denko Kabushiki Kaisha, priority 1987, dated 1990).
# Columns and labels:
# [1] = Evaluation Example 1: drug absorption to skin from residual drug amount, HPLC; conditions: formulated into the (meth)acrylic copolymer used in the present invention; Table 1
# Method: The tape preparation or poultice preparation was peeled off 24 hours after application, and the drug remaining on the applied site was wiped off with defatted cotton containing 1 ml of distilled water. The tape preparation or poultice preparation peeled off was stirred in 200 ml of hot ethanol for 2 hours to extract the drug, cooled to room temperature, and then brought to a constant volume of 200 ml with ethanol. To 5 ml of the solution was added 5 ml of an internal standard substance (300 μg/ml of an aqueous flulubiprofen solution was used), and after bringing to a constant volume of 50 ml with ethanol, the residual drug amount was measured by high performance liquid chromatography (hereinafter abbreviated as HPLC). The defatted cotton was stirred in 200 ml of distilled water for 2 hours to extract the drug, and to 5 ml of the solution was added 5 ml of the internal standard substance. After the mixture was brought to a constant volume of 50 ml with distilled water, the remaining drug amount was measured by HPLC.
# The ointment was wiped off with defatted cotton containing ethanol (10 ml of ethanol content) 24 hours after application. […] To 5 ml of the solution was added 5 ml of the above internal standard substance, and after bringing to 50 ml with ethanol, the remaining drug amount was measured by HPLC.
# [2] = Evaluation Example 3: remaining drug amount in tape preparation after storage; type: physicochemical; conditions: formulated into the (meth)acrylic copolymer used in the present invention; Table 3
# Method: The tape preparation prepared in Example 4 and Comparative Examples 8 and 9 were cut into 7×10 cm squares and were placed in a polyethylene-aluminum laminate bag and all four sides of the bag were sealed.
# The tape agent was stored at 40° C. and 75% R.H. for 3 months and the remaining drug amount in the tape preparation was measured in the same manner as in Evaluation Example 1.
# From the residual amount of drug measured, the drug remaining rate was calculated by the following formula: [formula]
# [3] = keratin soluble enzyme, N-acylsarcosine, aliphatic monoalkylolamide, or organic acid added; cited from earlier work
# [4] = adhesives containing polar monomers; cited from earlier work
compound,measurement,setting,value
O=C(O)Cc1ccccc1Nc1c(Cl)cccc1Cl [diclofenac sodium],percutaneous absorption of the drug (in words),[1],poor
same,chemical stability in the preparations (in words),[2],poor
CC(C(=O)O)c1cccc(Oc2ccccc2)c1 (stereo not shown) [fenoprofen],enhancement of the absorption by additive substance,[3],2 -fold
COc1ccc2c(c1)c(CC(=O)O)c(C)n2C(=O)c1ccc(Cl)cc1 [indomethacin],enhancement of the absorption by additive substance,[3],2 -fold
same,percutaneous absorption of the drug (in words),[1],poor
same,chemical stability in the preparations (in words),[2],poor
"CC(C(=O)O)c1cccc(C(=O)c2ccccc2)c1 (stereo not shown) [ketoprofen, 3-Benzoylhydratropic acid]",amount formulated at which crystals are not precipitated,[4],about 40 % by weight
